Article PMC4117522, “Proteasome Inhibitors Alter Levels of Intracellular Peptides in HEK293T and SH-SY5Y Cells” (PLoS ONE, 2014)
Where “and” joins values, the source holds several entries; their conditions need not be identical. Equal values may be shown once. Residues, ends and D or L forms follow the SMILES beside them. *: point of attachment. Cbz = O=C(OCc1ccccc1)*

Key:
HEK293T cells = test: Quantitative peptidomics (TMAB isotopic labels, LC-MS/MS) of inhibitor-treated HEK293T cells; format: cell-based, human; conditions: for change in levels of intracellular peptides (peptidome): HEK293T cells, 35 min, 2.5 µM MG132, 1 µM other inhibitors
Description: (§1) HEK293T and SH-SY5Y cells were grown to 80–90% confluence in DMEM and RPMI supplemented with 10% fetal bovine serum and penicillin/streptomycin. A single plate of cells (150 mm×25 mm) was used for each group. At the start of the experiment, media were removed from the plates and cells were washed with DPBS (138 mM NaCl, 8.06 mM Na2HPO4, 2.67 mM KCl, 1.47 mM KH2PO4, 0.9 mM CaCl2 and 0.49 mM MgCl2). This was followed by addition of serum-free media containing the proteasome or aminopeptidase inhibitors, or 0.05% DMSO as a control for the inhibitors that were soluble in DMSO. Each experiment consisted of two control groups and two or three replicate groups of cells treated with one of the inhibitors. The cells were incubated at 37°C for 20 minutes, following which media containing the inhibitor was removed, cells were washed with DPBS, detached from the plate by scraping into DPBS (without trypsin), and centrifuged at 800×g for 5 min. The wash buffer was supplemented with the appropriate inhibitor at the same concentration as used for the treatment, thereby ensuring that the changes induced in peptide levels were not reversed during harvesting of cells due to possible dissociation of the reversible inhibitors. The wash time (including centrifugation) was 15 minutes, for a total treatment time of 35 minutes. After centrifugation, the cell pellet was resuspended in 1 ml of 80°C water and incubated in an 80°C water bath for 20 minutes to inactivate proteases. The mixture was again centrifuged (13,000×g, 30 min, 4°C) and was stored at −80°C overnight. For peptide extraction, the samples were thawed and centrifuged again. The lysate was subsequently cooled on ice and acidified with HCl to a final concentration of 10 mM. After 15 min incubation on ice, the lysate was centrifuged at 13,000×g for 30 min at 4°C. To the supernatant, 250 µL of dibasic sodium phosphate (0.4 M, pH 9.5) was added and the mixture was stored at −80°C until labeling.
(§2) The labeling protocol has been earlier described in detail. Each group within an experiment (control/treated) was labeled with a different isotopic tag. The TMAB-NHS labels were dissolved in DMSO to a concentration of 400 µg/µL and 15 mg of label was used per 150 mm plate of cells. […] At the beginning, the pH of the peptide extract was adjusted to 9.5 with 1 M NaOH. Labeling was performed over 8 rounds; 4.69 µL of the label was added to the extract every 20 min. The pH was measured between each round and if necessary, brought back to 9.5 for the first five rounds. For rounds 6–8, the pH was not adjusted after the addition of the TMAB-NHS reagent. After the final round of label addition, the pH was adjusted to 9.5 again and the extracts were incubated at room temperature for 90 min. Thereafter, 30 µL of 2.5 M glycine was added to quench any unreacted label. Following 40 min incubation at room temperature, the labeled extracts for a single experiment were pooled and filtered through Amicon Ultracel-10 K units. It is important to ensure that only N-terminal amines and lysine side-chain amines of peptides are TMAB-labeled and not tyrosines. To hydrolyze any labeled tyrosine, 30 µL of a 2 M solution of hydroxylamine hydrochloride (pH 3.7) was added over three rounds to the pooled and filtered sample. The pH was measured after the addition of hydroxylamine and adjusted to 9.0 with 1 M NaOH. The samples were desalted through PepClean C-18 spin columns (Thermo Scientific, Rockford, IL, USA) by following manufacturer’s instructions. Peptides were eluted using 160 µL of 0.5% TFA and 70% acetonitrile, frozen at −80°C and then lyophilized in a vacuum centrifuge and stored at −80°C until analysis by mass spectrometry.
(§3) The LC-MS/MS experiments were performed on a Synapt G2 mass spectrometer coupled to a NanoAcquity capillary liquid chromatography system (Waters Co., Milford, MA, USA).

SH-SY5Y cells = test: Quantitative peptidomics (TMAB isotopic labels, LC-MS/MS) of inhibitor-treated SH-SY5Y cells; format: cell-based, human
Description: as §1, §2, §3

## CC(=O)N[C@@H](CSC(=O)[C@]1([C@@H](O)C(C)C)NC(=O)[C@H](C)[C@@H]1O)C(=O)O [Lactacys]
HEK293T cells; 1 uM, 35', HEK
  Relative Levels of peptide AKADGIVSKNF (RPS21): 0.16 and 0.15
  Relative Levels of peptide Ac-ASKRALVIL (PARK7): < 0.20 and 0.26
  Relative Levels of peptide Ac-ASKRALVILA (PARK7): 0.29 and 0.31
  Relative Levels of peptide Ac-MDTSRVQPIKL (RPS28): 0.31 and 0.28
  Relative Levels of peptide Ac-MDTSRVQPIKLAR (RPS28): 0.52 and 0.70
  Relative Levels of peptide Ac-SSEEGKLFVGGLNF (RBM3): 0.39 and 0.30
  Relative Levels of peptide Ac-SYGRPPPDVEGMTSLKVDNL (SRSF2): 0.40 and 0.50
  Relative Levels of peptide GAIRDIDL (SRSF1): < 0.20
  Relative Levels of peptide GFGDLKSPAGLQVL (EEF1B2): 0.19 and 0.14
  Relative Levels of peptide GVQVETISPGDGRTFPKRGQT (FKBP1A): 0.31 and 0.26
  Relative Levels of peptide KHTGPGILSM (PPIA): 0.25 and 0.22

## CC[C@H](C)[C@H](NC(=O)[C@H]([C@@H](C)CC)N(C)C(C)=O)C(=O)N[C@H](C(=O)N[C@@H](CC(C)C)C(=O)[C@@]1(C)CO1)[C@@H](C)O [Epox.]
HEK293T cells; 0.2 uM, 1h, HEK
  Relative Levels of peptide AAETVTKGGIMLPEKSQGKVLQA (HSPE1): < 0.20
  Relative Levels of peptide ADKVPKTAENFRAL (PPIA): < 0.20
  Relative Levels of peptide AGAAVDELGKVLTPTQV (PEBP1): < 0.20
  Relative Levels of peptide AKADGIVSKNF (RPS21): < 0.20
  Relative Levels of peptide APIKVGDAIPAVEVF (PRDX5): < 0.20
  Relative Levels of peptide APPTAYIDFARQK (TPI1): 0.58 and 0.64
  Relative Levels of peptide ASQPDVDGFLVGGASLKPEFVDIINA (TPI1): < 0.20
  Relative Levels of peptide ASQPDVDGFLVGGASLKPEFVDIINAKQ (TPI1): 1.17 and 1.09
  Relative Levels of peptide AVDGEPLGRVSF (PPIA): < 0.20
  Relative Levels of peptide Ac-AAPVDLELKKAFTEL (PFDN1): < 0.20
  Relative Levels of peptide Ac-ANLERTFIAIKPDGV (NME2): < 0.20
  Relative Levels of peptide Ac-ASKRALVIL (PARK7): < 0.20
  Relative Levels of peptide Ac-ASKRALVILA (PARK7): < 0.20
  Relative Levels of peptide Ac-MDTSRVQPIKL (RPS28): < 0.20
  Relative Levels of peptide Ac-MDTSRVQPIKLAR (RPS28): 0.95
  Relative Levels of peptide Ac-SSEEGKLFVGGLNF (RBM3): < 0.20
  Relative Levels of peptide Ac-SYGRPPPDVEGMTSLKVDNL (SRSF2): 0.23 and 0.32
  Relative Levels of peptide Ac-[…] (COX6B1): < 0.20
  Relative Levels of peptide EDENFILKHTGPGILSM (PPIA): < 0.20
  Relative Levels of peptide GAIRDIDL (SRSF1): 0.29 and 0.33
  Relative Levels of peptide GFGDLKSPAGLQVL (EEF1B2): < 0.20
  Relative Levels of peptide GISTPEELGLDKV (COX5A): < 0.20
  Relative Levels of peptide GVQVETISPGDGRTFPKRGQT (FKBP1A): 0.72 and 0.45
  Relative Levels of peptide KHTGPGILSM (PPIA): < 0.20
  Relative Levels of peptide PGIVELPTLEEL (NDUFA8): < 0.20
  Relative Levels of peptide SAMTEEAAVAIKAMAK (EIF5A): 0.36 and 0.21
  Relative Levels of peptide SLGELIGTLNA (TPI1): 0.29 and < 0.20
  Relative Levels of peptide VNPTVFFDI (PPIA): < 0.20
HEK293T cells; 2 uM, 1h, HEK
  Relative Levels of peptide AAETVTKGGIMLPEKSQGKVLQA (HSPE1): < 0.20
  Relative Levels of peptide ADKVPKTAENFRAL (PPIA): < 0.20
  Relative Levels of peptide AGAAVDELGKVLTPTQV (PEBP1): < 0.20
  Relative Levels of peptide AKADGIVSKNF (RPS21): < 0.20
  Relative Levels of peptide APIKVGDAIPAVEVF (PRDX5): < 0.20
  Relative Levels of peptide ASQPDVDGFLVGGASLKPEFVDIINA (TPI1): < 0.20
  Relative Levels of peptide ASQPDVDGFLVGGASLKPEFVDIINAKQ (TPI1): < 0.20
  Relative Levels of peptide AVDGEPLGRVSF (PPIA): < 0.20
  Relative Levels of peptide Ac-AAPVDLELKKAFTEL (PFDN1): < 0.20
  Relative Levels of peptide Ac-AEEGIAAGGVMDVNTALQEVLKT (RPS12): 0.61 and 0.42
  Relative Levels of peptide Ac-ANLERTFIAIKPDGV (NME2): < 0.20
  Relative Levels of peptide Ac-ASKRALVIL (PARK7): < 0.20
  Relative Levels of peptide Ac-ASKRALVILA (PARK7): < 0.20
  Relative Levels of peptide Ac-MDTSRVQPIKL (RPS28): < 0.20
  Relative Levels of peptide Ac-MDTSRVQPIKLAR (RPS28): 0.64 and 0.94
  Relative Levels of peptide Ac-MDTSRVQPIKLARVTKV (RPS28): < 0.20
  Relative Levels of peptide Ac-SSEEGKLFVGGLNF (RBM3): < 0.20
  Relative Levels of peptide Ac-SYGRPPPDVEGMTSLKVDNL (SRSF2): < 0.20
  Relative Levels of peptide EDENFILKHTGPGILSM (PPIA): < 0.20
  Relative Levels of peptide GESDDSILRLAKADGIVSKNF (RPS21): < 0.20
  Relative Levels of peptide GFGDLKSPAGLQVL (EEF1B2): 0.54 and 0.68
  Relative Levels of peptide GISTPEELGLDKV (COX5A): 0.38 and 0.45
  Relative Levels of peptide KHTGPGILSM (PPIA): < 0.20
  Relative Levels of peptide PGIVELPTLEEL (NDUFA8): < 0.20
  Relative Levels of peptide SAMTEEAAVAIKAMAK (EIF5A): < 0.20
  Relative Levels of peptide SLGELIGTLNA (TPI1): 0.52 and 0.30
  Relative Levels of peptide VNPTVFFDI (PPIA): < 0.20

## CC(C)C[C@H](NC(=O)[C@H](CCc1ccccc1)NC(=O)CN1CCOCC1)C(=O)N[C@@H](Cc1ccccc1)C(=O)N[C@@H](CC(C)C)C(=O)[C@@]1(C)CO1 [carfilzomib, reference compound]
HEK293T cells
  change in levels of intracellular peptides (peptidome): decreased the levels of many peptides but also elevated levels of a number of other peptides
SH-SY5Y cells; SH-SY5Y cells, 35 min, 2.5 µM MG132, 1 µM other inhibitors
  change in levels of intracellular peptides (peptidome): decreased the levels of many peptides but also elevated levels of a number of other peptides

## CC(=O)N[C@@H](CSC(=O)[C@]1([C@@H](O)C(C)C)NC(=O)[C@H](C)[C@@H]1O)C(=O)O [Lactacystin]
SH-SY5Y cells; 1 uM, 35', SH-SY5Y
  Relative Levels of peptide ADKVPKTAENFRAL (PPIA): < 0.20
  Relative Levels of peptide Ac-AAPVDLELKKAFTEL (PFDN1): < 0.20
  Relative Levels of peptide Ac-ASKRALVIL (PARK7): 0.25 and < 0.20 and 0.21
  Relative Levels of peptide Ac-ASKRALVILA (PARK7): 0.52 and 0.32 and 0.42
  Relative Levels of peptide Ac-MDTSRVQPIKL (RPS28): 0.47 and 0.49 and 0.51
  Relative Levels of peptide Ac-SSEEGKLFVGGLNF (RBM3): 0.55 and 0.38 and 0.49
  Relative Levels of peptide Ac-SYGRPPPDVEGMTSLKVDNL (SRSF2): 0.63 and 0.36 and 0.45
  Relative Levels of peptide GAIRDIDL (SRSF1): < 0.20
  Relative Levels of peptide KHTGPGILSM (PPIA): 0.26 and 0.24 and 0.25

## CC(C)C[C@@H](C=O)NC(=O)[C@H](CC(C)C)NC(=O)[C@H](CC(C)C)NC(=O)OCc1ccccc1 [MG132, reference compound] (Cbz-Leu-Leu-Leu-aldehyde)
HEK293T cells
  change in levels of intracellular peptides (peptidome): the majority of peptides was greatly decreased
